Measured values: patent US4151300A, “Acetohydroxamic acids” (Laboratoire L. Lafon, priority 1976, dated 1979)
Converted amounts (≈) assume the structure as drawn. “Also recorded” adds a separate entry of the source.

Assays:
[1] = tested on: mice; experiment: toxicity (isolated mice, intraperitoneal); type: in vivo
Method: (§1) The following text summarises a part of the results of the tests which were carried out with the products according to the invention, these products (unless otherwise stated) being administered intraperitoneally, in suspension in a gum solution (gum arabic), in a volume of 20 ml/kg in the case of mice and of 5 ml/kg in the case of rats.

[2] = tested on: rats; experiment: interaction with apomorphine (stereotype behaviour in rats); type: in vivo; settings: rats, i.p.
How it was run: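 Rats in groups of six received the test compound intraperitoneally as a gum arabic suspension at 5 ml/kg. Thirty minutes later they were given apomorphine 0.5 mg/kg subcutaneously, and stereotyped behaviour was scored.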

[3] = tested on: rats; experiment: interaction with amphetamine (stereotypies in rats); type: in vivo; settings: rats, i.p.
How it was run: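 Test products given intraperitoneally as a gum arabic suspension (5 ml/kg in rats). Thirty minutes later, amphetamine 2 mg/kg is injected intraperitoneally; 6 animals per dose.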

[4] = tested on: mice; experiment: interaction with reserpine (hypothermia, ptosis); type: in vivo; settings: i.p.
[5] = tested on: mice; experiment: interaction with oxotremorine (temperature, trembling, peripheral cholinergic symptoms); type: in vivo; settings: mice, i.p.
[6] = tested on: mice; experiment: spontaneous motility (actimeter); type: in vivo; settings: mice
How it was run: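 Compounds given i.p. as a gum arabic suspension at 20 ml/kg. Thirty minutes after dosing, mice (6 per dose, 12 controls) went into an actimeter and motility was recorded for half an hour.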

[7] = tested on: mice; experiment: motility reduced by habituation to a cage (residual motility); type: in vivo; settings: i.p.
How it was run: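 Mice habituated 18 hours in actimeters received compound intraperitoneally as a gum arabic suspension (20 ml/kg) and were returned to their cages. Motility was recorded for 30 minutes starting half an hour after dosing, with 6 animals per dose and 12 controls.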

[8] = tested on: mice; experiment: motility reduced by hypoxia treatment (motor recovery); type: in vivo; settings: mice, i.p.
[9] = tested on: mice; experiment: inter-group aggressiveness (number of fights); type: in vivo
How it was run: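 Mice were housed either three weeks (CRL 40,373) or 18 days (CRL 40,385, groups of 3) on each side of an opaque cage partition. Fights were counted over 15 min.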

[10] = tested on: central nervous system; experiment: psychopharmacological study / behaviour; type: in vivo, mice; settings: for sedation / sedative effect: high dose(s)
[11] = tested on: mice; experiment: interaction with apomorphine in mice; type: in vivo
[12] = tested on: mice; experiment: four-plate test; type: in vivo, mice (EVIC CEBA strain); settings: i.p.
Method: as §1
(§2) The test is carried out on batches of 10 sensitive mice (EVIC CEBA strain), 30 minutes after the administration of CRL 40,373.
(§3) Batches of 10 mice are subjected to the test thirty minutes after having received CRL 40,385.

[13] = tested on: mice; experiment: traction (motor incoordination); type: in vivo, mice (EVIC CEBA strain)
[14] = tested on: mice; experiment: electrical shock (convulsing effects); type: in vivo, mice (EVIC CEBA strain); settings: i.p.
Method: as §1, §2, §3

[15] = tested on: man; experiment: clinical use in man; type: in vivo; settings: pill 20 mg, 3 to 4 pills per day
[16] = solubility in distilled water; type: physicochemical; settings: read-out: solubility limit
[17] = tested on: rats; experiment: behaviour in rats; type: in vivo
Method: as §1

**Q.** With `O=C(CNc1ccc(Cl)c(Cl)c1)NO` [CRL 40,500, (3,4-Dichloroanilino)-acetohydroxamic acid] as the compound, how does the mortality ([1]; i.p., 256 mg/kg) read?
**A.** the mice survive

**Q.** What about the “average time to death” value ([1]; i.p., 512 mg/kg) of the same compound?
**A.** 18 h

**Q.** What about the relative toxicity ([1]; mouse, in vivo, ip) of the same compound?
**A.** more toxic than the products studied above

**Q.** What about the symptoms / behaviour ([1]; mouse, in vivo, ip, 256 mg/kg) of the same compound?
**A.** the symptoms are identical

**Q.** What about the apomorphine-induced stereotypies [2] of the same compound?
**A.** does not alter the stereotypies induced by apomorphine

**Q.** What about the amphetamine-induced stereotypies [3] of the same compound?
**A.** does not alter the stereotypies induced by apomorphine (rats and mice) and by amphetamine (rats)

**Q.** And the reserpine-induced hypothermia [4]?
**A.** aggravation of the hypothermia due to reserpine

**Q.** What about the “temperature (oxotremorine-induced hypothermia)” value [5] of the same compound?
**A.** aggravation of the hypothermia due to reserpine and to oxotremorine

**Q.** And the “peripheral effects of oxotremorine” value ([5]; 128 and 32 mg/kg)?
**A.** increases the peripheral effects of oxotremorine

**Q.** And the spontaneous motility ([6]; i.p., 32 and 128 mg/kg)?
**A.** moderately reduces the spontaneous motility of mice

**Q.** What about the “motility reduced by habituation to the cage” value ([7]; 128 mg/kg) of the same compound?
**A.** moderate resumption of the motor activity of mice habituated to their cage

**Q.** What about the “motor recovery after hypoxia/anoxia by pressure reduction” value [8] of the same compound?
**A.** does not cause a marked improvement in the motor recovery of mice

**Q.** And the aggressiveness ([9]; low dose)?
**A.** reduction of aggressiveness which is substantial at low doses

**Q.** And the inter-group aggressiveness ([9]; mice, i.p., all the doses studied)?
**A.** reduces the inter-group aggressiveness of mice

**Q.** What about the inter-group aggressiveness ([9]; mice, i.p., high doses (64 and 128 mg/kg)) of the same compound?
**A.** a reduction of the effect is observed

**Q.** And the inter-group aggressiveness ([9]; mice, i.p., lowest dose used (8 mg/kg))?
**A.** present with considerable intensity

**Q.** What about the “sedation / sedative effect” value [10] of the same compound?
**A.** moderate sedation at high doses

**Q.** And the apomorphine-induced stereotypies [11]?
**A.** does not alter the stereotypies induced by apomorphine

**Q.** With `O=C(CC(=O)Nc1c(Cl)cccc1Cl)NO` [CRL 40,510, 2,6-Dichlorophenyl-carbamoyl-acetohydroxamic acid] as the compound, how does the “LD-O (maximum non-lethal dose)” value ([1]; mice, i.p.) read?
**A.** greater than 1,024 mg/kg

**Q.** And the oxotremorine-induced trembling [5]?
**A.** moderately antagonistic to the trembling movements caused by oxotremorine

**Q.** What about the “anxiolytic effect (four plate test)” value ([12]; also gastric administration) of the same compound?
**A.** effects of the anxiolytic type

**Q.** What about the “motor incoordination / incapacity” value ([13]; i.p.) of the same compound?
**A.** absence of motor incapacity

**Q.** What about the anti-convulsive effect ([14]; also gastric administration) of the same compound?
**A.** of the anti-convulsive type

**Q.** And the “sedation / sedative effect” value [10]?
**A.** moderate sedative effect

**Q.** What about the “psychopharmacological profile / conclusion” value ([10]; mouse, in vivo) of the same compound?
**A.** comes close to the benzodiazepines in respect of anxiolytic and anti-convulsive activities; also recorded: relative resistance to sedation

**Q.** And the clinical result [15]?
**A.** good results in man as an anxiolytic sedative agent

**Q.** What about the solubility [16] of the same compound?
**A.** ~13 mg/mL (≈ 49.4 mM)

**Q.** For `CC(C(=O)NO)[S+]([O-])Cc1ccc(Cl)cc1` (stereo not shown) [CRL 40,466, 2-(p-Chlorobenzylsulphinyl)-propionohydroxamic acid], which mortality ([1]; mice, i.p., 256, 512 and 1,024 mg/kg) is on record?
**A.** does not cause any mortality whatsoever

**Q.** What about the apomorphine-induced stereotypies [2] of the same compound?
**A.** does not markedly alter the stereotypies induced in rats by apomorphine

**Q.** And the amphetamine-induced stereotypies [3]?
**A.** does not markedly alter the stereotypies induced in rats by apomorphine and amphetamine

**Q.** What about the oxotremorine-induced trembling [5] of the same compound?
**A.** reduces the trembling movements due to oxotremorine

**Q.** What about the “temperature (oxotremorine-induced hypothermia)” value [5] of the same compound?
**A.** does not oppose hypothermia induced by oxotremorine

**Q.** And the “temperature (oxotremorine-induced hypothermia)” value ([5]; high doses)?
**A.** aggravates the hypothermia

**Q.** And the “number of incorrect moves (four-plate test)” value ([12]; mice)?
**A.** moderate (but significant) increase in the number of incorrect moves

**Q.** And the motor incapacity ([13]; high dose)?
**A.** motor incapacity

**Q.** And the “convulsing effects of the electric shock” value ([14]; mice)?
**A.** antagonism to convulsions caused by electric shock

**Q.** What about the spontaneous motility ([6]; high dose) of the same compound?
**A.** reduction in spontaneous motility

**Q.** And the spontaneous motility ([6]; i.p., 8 mg/kg)?
**A.** appears to exhibit a stimulant effect on the motility

**Q.** And the spontaneous motility ([6]; i.p., 512 mg/kg)?
**A.** depresses spontaneous motility in mice

**Q.** What about the “motility reduced by habituation to the cage” value [7] of the same compound?
**A.** moderate increase in the motility reduced by habituation

**Q.** What about the “motor recovery after hypoxia/anoxia by pressure reduction” value [8] of the same compound?
**A.** moderate increase in the motility reduced by habituation or by the effects of hypoxia

**Q.** And the aggressiveness ([9]; low dose)?
**A.** increase in aggressiveness

**Q.** And the aggressiveness ([9]; mice, i.p., large/high dose)?
**A.** reduction of aggressiveness

**Q.** And the reactivity ([10]; mice, high dose)?
**A.** hypo-reactivity

**Q.** And the excitation ([10]; mice, low dose)?
**A.** excitation, with hyper-reactivity

**Q.** What about the “body temperature effect (product alone)” value ([10]; mouse, in vivo) of the same compound?
**A.** hypothermia

**Q.** And the “psychopharmacological profile / conclusion” value ([10]; mouse, in vivo)?
**A.** effects of the sedative type and effects of the psychostimulant type; also recorded: sedation in mice

**Q.** What about the “ptosis (product alone)” value ([10]; mouse, in vivo) of the same compound?
**A.** ptosis

**Q.** What about the excitation [17] of the same compound?
**A.** excitation, with hyper-reactivity
